# What was measured:
# Aβ1-42 and Aβ1-40 = Aβ1-42 and Aβ1-40 content in peripheral blood (plasma, serum) by ELISA; assay type: in vivo, mouse
# Description: (§1) FIG. 7. […] Bar graphs represent group mean±SEM, n=3 mice per group. 2-tailed t-test: *P<0.05.
# (§2) Assessment of AD-type amyloid neuropathology in Tg2576 mice. For quantitative assessment of Aβ peptide in the brain, frozen pulverized tissue was homogenized in 5.0 M guanidine buffer, diluted (1:10) in phosphate-buffered saline containing 0.05% (v/v) Tween-20 and 1 mM Pefabloc protease inhibitors (Roche Biochemicals, Indianapolis, Ind.), and centrifuged for 20 min at 4° C. […] Serum Aβ content was analyzed using the same ELISA Kit, following manufacturer instructions.
# Aβ1-42 [1] = experiment: Aβ1-42 content in conditioned medium of primary cortico-hippocampal neuron cultures from Tg2576 mice (ELISA; primary and secondary dose-response screening); assay type: cell-based, mouse; conditions: drug 100 μM
# Method in brief: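 This screen tested cardiovascular drugs for Aβ-lowering in Tg2576 embryonic cortico-hippocampal neuron cultures plated at 1.0×10^5 cells per well in poly-D-lysine-coated 96-well plates with Neurobasal/B27 medium. Drugs at 100 μM were added directly to the medium in duplicate, with 1% DMSO alone as the control. Conditioned medium was then collected, and its Aβ1-42 level was quantified with BioSource ELISA kits.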
# Aβ peptides = experiment: Aβ peptide profile in the brain by IP-MS; conditions: Tg2576, 10 or 60 mg/Kg/day, 3 weeks
# Aβ1-42 [2] = conditions: Tg2576, short-term dosing, subclinical or clinical concentrations
# Description: Cognitive behavioral function was assessed using the Morris water maze (MWM). After completion of the MWM test, blood pressure measurements were quantified as describe in FIG. 1 legends. Following MWM testing and blood pressure assessment, mice were sacrificed for neuropathological assessment. […] C, (inset), total immunoreactive APP content normalized to β-actin signal. In C-D, bar graphs represent group mean±SEM, n=6-10 mice per group.
# as §1, §2
# Aβ1-40 = Aβ1-40 content in conditioned medium of primary cortico-hippocampal neuron cultures from Tg2576 mice (ELISA; primary and secondary dose-response screening); assay type: cell-based, mouse; conditions: for Ab1-40 (% of ctl): drug 100 μM
# Method in brief: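 Primary cortico-hippocampal neurons from embryonic Tg2576 mice were plated at 1.0×10^5 cells per well on poly-D-lysine-coated 96-well plates in Neurobasal with 2% B27, 0.5 mM L-glutamine and 1% penicillin-streptomycin. Cultures received drug in 1% DMSO, and Aβ1-40 in the conditioned medium was measured by BioSource ELISA 24 hours after treatment, relative to vehicle controls.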
# [3] = propranolol-HCL detection in brain and plasma (LC-MS); assay type: in vivo, mouse; conditions: Tg2576, 10 mg/kg/day in drinking water, three weeks
# Description: In this short-term dosing study, Tg2576 mice were treated with propranolol-HCL for three-weeks at a concentration ˜3 fold lower than used for treatment of hypertension (10 mg/kg/day delivered in the drinking water). At the time of sacrifice, emicerebellum (pool from N=3 per group) was homogenized 0.4 M perchloric acid, centrifuged (3,000×g; 15 min), and the […] layer evaporated by heating (Botterblom et al., 1993), while the residual diethyl-ether and acidic aqueous layer was used for analysis. Plasma from propranolol-HCL treated mice (pooled, n=3 per group) was extracted using a modified protocol (Martin et al., 2004) mixing equal volumes of plasma in 0.1% NaOH. Propanolol-HCL was then extracted by ethyl acetate and centrifuged. The acidic […] layers were then dried, samples were analyzed by tandem liquid chromatography—mass spectrometry, and concentration was determined against an internal standard, in a range of quantification of n between 1-1,000 ng/ml.
# α-secretase = conditions: Tg2576, propranolol-HCL, neocortex
# Description: (§3) Brain samples were homogenized in supplied buffers. Homogenate was then added to secretase-specific APP peptide conjugated to the reporter molecules EDANS and DABCYL. […] Cleavage of APP peptide by secretase physically separates the EDANS and DABCYL reporter molecules, allowing for the release of a fluorescent signal. The level of secretase enzymatic activity is proportional to the fluorometric reaction in the homogenate (R & D Systems).
# β-secretase = β-secretase (Mus musculus, UniProt P56818); conditions: Tg2576, propranolol-HCL, neocortex
# Description: as §3
# γ-secretase = conditions: Tg2576, propranolol-HCL, neocortex
# Description: as §3
# Tg2576 mice [4] = experiment: tolerability: body weight, fluid consumption, glucose tolerance
# Tg2576 mice [5] = experiment: blood pressure (systolic, diastolic, MAP) by tail-cuff; assay type: in vivo, mouse; conditions: Tg2576, 3 weeks
# Description: FIG. 1 Tg2576 mice are characterized by normal blood pressure under basal conditions. Baseline measurements of systolic, diastolic blood pressure, and mean arteriole blood pressure (MAP) in ˜11 month old female Tg2576 mice. Strain-, age-, gender-matched WT mice were measured using a commercial blood pressure analysis system designed specifically for small rodents (Hatteras Instruments, NC). Following manufacturer's instruction, mice were temporarily immobilized in a restraining chamber and an inflated tail-cuff wrapped around the tail was used to measure the systolic pressure, diastolic pressure, and MAP. Each blood pressure determination was calculated as the mean of 10 individual measurements per animal (n=6-10 group).
# FIG. 6A-C show body weight of mice in response to ˜3 weeks of treatment. […] FIG. 6D-F show the assessment of systolic, diastolic, and MAP blood pressure in Tg2576 mice in response to drug doses below or within the range of those prescribed in hypertension. Blood pressure measurements were conducted using a commercial blood pressure analysis system designed specifically for small rodents (Hatteras Instruments, NC). Following manufacturer's instruction, mice were temporarily immobilized in a restraining chamber and an inflated tail-cuff wrapped around the tail was used to measure pressures. Each blood pressure determination was calculated as the mean of 10 individual measurements per animal. In A-F, values represent mean±SEM values, n=3-5 mice per group. 2-tailed t-test: *P<0.05.
# Assessment of blood pressure and glucose utilization. Mouse blood pressure was routinely recorded using a commercial blood pressure analysis system designed specifically for small rodents (Hatteras Instruments, NC). […] Briefly, mice were given a single dose of glucose post-prandially (i.p. 2 g/kg body weight). Blood was collected from the tail-vein periodically over a 2-hour period. Blood glycemic content was assessed using the OneTouch LifeScan System, (LifeScan, Milpitas, Calif.) following the manufacturer's instruction.
# [6] = stability of valsartan salt (solid, aqueous; TLC); assay type: physicochemical; conditions: 50 and 200 mg/L, 3-10 week old solutions, room temperature, dark
# Description: The solution is cooled to room temperature slowly without external cooling to discourage precipitation of the drug.
# The solution was then cooled to room temperature slowly without external cooling to discourage precipitation of the drug. […] Quality was assessed in 3-10 week old solutions stored at room temperature in dark compartments. Drinking solutions for the in vivo treatments were freshly prepared twice a week. Liquid consumption and animal body weight were monitored weekly throughout the study.
# [7] = Primary Screening, table sorted by Aβ1-40
# [8] = primary screening, Tg2576 neuron cultures, table sorted by Aβ1-42
# β-secretase, sequence (P56818 46-501): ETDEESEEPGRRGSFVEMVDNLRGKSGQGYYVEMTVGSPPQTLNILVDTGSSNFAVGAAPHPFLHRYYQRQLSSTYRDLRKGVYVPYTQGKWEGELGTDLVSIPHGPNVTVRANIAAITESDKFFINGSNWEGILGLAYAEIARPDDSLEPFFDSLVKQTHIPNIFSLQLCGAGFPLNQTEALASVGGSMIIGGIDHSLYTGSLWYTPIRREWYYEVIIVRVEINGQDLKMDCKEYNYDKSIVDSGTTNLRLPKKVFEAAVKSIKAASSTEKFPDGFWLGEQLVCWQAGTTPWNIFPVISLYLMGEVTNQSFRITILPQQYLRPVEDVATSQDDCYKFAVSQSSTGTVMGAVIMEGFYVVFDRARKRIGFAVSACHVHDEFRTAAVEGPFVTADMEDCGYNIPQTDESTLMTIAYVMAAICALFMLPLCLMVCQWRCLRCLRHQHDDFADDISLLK
Compound,"plasma Aβ1-42 levels (and Aβ1-40) (Aβ1-42 and Aβ1-40; Tg2576, doses ~3 fold lower than minimal hypertension dose)","plasma Aβ1-42 (and Aβ1-40) (Aβ1-42 and Aβ1-40; Tg2576, within the dosage range prescribed for hypertension)",Ab1-42 (% of ctl) (Aβ1-42 [1]; [7]),Ab1-42 (% of ctl) (Aβ1-42 [1]; [8]),"Aβ1-34, Aβ1-37, Aβ1-38, Aβ1-39, Aβ1-40 in the brain (IP-MS) (Aβ peptides)",Aβ1-42 content in the neocortex (IP-MS) (Aβ peptides),steady state levels of Aβ1-42 in hippocampal formation or cerebral cortex (Aβ1-42 [2]),Ab1-40 (% of ctl) (Aβ1-40; [7]),"reduced Aβ1-40 (Aβ1-40; primary screening, <85% of ctl)",Ab1-40 (% of ctl) (Aβ1-40; [8]),level in the cerebellum [3],α-secretase activity in the brain (α-secretase),β-secretase activity in the brain (β-secretase),γ-secretase activity in the brain (γ-secretase),"fluid intake (Tg2576 mice [4]; Tg2576, short-term dosing)","tolerability (body weight) (Tg2576 mice [4]; Tg2576, short-term, 3 weeks, doses ~3 fold below or within hypertension range, drinking water)","systolic, diastolic, MAP blood pressure (Tg2576 mice [5]; doses within the range used for hypertension)","systolic, diastolic, MAP blood pressure (Tg2576 mice [5]; doses ~3 fold below the minimal hypertension dose)",stability of drinking solutions by TLC analysis [6]
CC(C)NCC(O)COc1cccc2ccccc12.Cl (racemic) [Propranolol Hydrochloride (+/−)],prevented plasma accumulation of Aβ1-42 levels,lowering responses were found,93.4 % of ctl,93.4 % of ctl,dose-dependent reduction of most of the detectable Aβ species,dose dependent decrease in Aβ1-42 content,significantly reduced steady state levels of Aβ1-42,65.2 % of ctl,reduced Aβ1-40,65.2 % of ctl,nM levels,no detectable change,selective decrease in β-secretase activity,no detectable change,did not significantly influence the amount of fluid intake,well-tolerated,"decreased systolic, diastolic, and MAP blood pressure","did not significantly influence either systolic, diastolic or MAP blood pressure",–
CCCCC(=O)N(Cc1ccc(-c2ccccc2-c2nnn[nH]2)cc1)[C@H](C(=O)O)C(C)C [Sodium valsartan],–,–,–,–,–,–,–,–,–,–,–,–,–,–,–,–,–,–,no change in the recovered compound

# Source: patent US20100029654A1, “CARDIOVASCULAR COMPOSITIONS AND USE OF THE SAME FOR THE TREATMENT OF ALZHEIMER'S DISEASE” (MOUNT SINAI SCHOOL OF MEDICINE, priority 2006, published 2010)
